{
  "source": "patent US7981939B2",
  "about": "“Application of 2-bromide-isovanillin for the manufacture of a medicament for anti-cancer or/and radiation/chemotherapy sensitization” (Institute of Radiation Medicine, Academy of Military …, priority 2005, dated 2011)",
  "key": {"[1]": {"system": "ovarian cancer cell line A2780", "test": "Clonogenic assay, 6 days of continuous action, A2780", "assay_type": "cell-based, human", "experimental": "(§1) Human cervical cancer cell line HeLa, human liver cancer cell line HepG2/7221/7402, human ovarian cancer cell line HOC8/A2780, human glioma cell line BT325, lung cancer cell line A549, brain metastatic lung cancer cell line BT72 and normal human hepatic cell line LO2 were all grown in DMEM liquid medium supplemented with 10% newborn calf serum. Human leukemia cell line Jurkat was grown in 1640 medium supplemented with 10% newborn calf serum. The above cell lines were cultured in a CO2 incubator at 5% CO2 at 37° C.\n(§2) By way of example, human cervical cancer cell line HeLa, lung cancer cell line A549, and ovarian cancer cell lines A2780 and HOC8 were used to determine the killing of cancer cells by 2-bromo-isovanillin for 6 days. Specifically, four groups were formed according to the type of the cancer cells. The cancer cells were diluted as appropriate, and were respectively plated into Petri dishes with a diameter of […], the amount of the cells adjusted depending on the concentration of 2-bromo-isovanillin to be added. Once adherence was achieved, each cell type received dosages of 0, 5, 10, 15, 20, 25, 30 and 35 μmol/L in triplicates. After 6 days of continuous action, the medium was replaced by a drug-free DMEM liquid medium. […] Then the cell clones were counted. The experimental data were expressed as the mean of 2-4 experiments and were plotted as a growth curve of cancer cells."}, "[2]": {"system": "HeLa, HepG2/7221/7402, HOC8/A2780, BT325, A549, BT72 and IB-4 cancer cell lines", "test": "Clonogenic assay, 24 hrs of continuous action, ten cancer cell lines", "assay_type": "cell-based, human", "details": "5, 10, 20 and 40 μmol/L", "experimental": "as §1\nBy way of example, human cervical cancer cell line HeLa, human liver cancer cell lines HepG2/7221/7402, human ovarian cancer cell lines HOC8/A2780, human glioma cell line BT325, lung cancer cell line A549, brain metastatic lung cancer cell line BT72 and prostate cancer cell line IB-4 were used to determine the killing of cancer cells by 2-bromo-isovanillin for 24 hrs. Specifically, ten groups were formed according to the type of the cancer cells. The cancer cells were diluted as appropriate, and were respectively plated into Petri dishes with a diameter of […], the amount of the cells adjusted depending on the concentration of 2-bromo-isovanillin to be added. […] Then the cell clones were counted. The experimental data were expressed as the mean of […] and were plotted as a growth curve of cancer cells, as shown in FIG. 3."}, "[3]": {"system": "human cervical cancer cell line HeLa", "test": "Clonogenic assay, 6 days of continuous action, HeLa", "assay_type": "cell-based", "experimental": "as §1, §2"}, "[4]": {"system": "spindle structure in HepG2 cells", "test": "Spindle structure by immunofluorescent labeling of tubulin, HepG2", "assay_type": "cell-based, human", "details": "HepG2, 40 μmol/L, 24 hrs", "description": "3. […] The influence of 2-bromo-isovanillin on the spindle structure in HepG2 cells was further studied by means of in situ immunofluorescence hybridization by immunofluorescent labeling of tubulin. […] The cells with impaired spindle function could not undergo normal division, thereby leading to rapid cell death, i.e., mitotic catastrophe."}, "[5]": {"system": "ovarian cancer cell line HOC8", "test": "Clonogenic assay, 6 days of continuous action, HOC8", "assay_type": "cell-based, human", "experimental": "as §1, §2"}, "[6]": {"system": "human cervical cancer cell line HeLa", "test": "MTT assay, proliferation of HeLa cells", "assay_type": "cell-based", "experimental": "as §1\nBy way of example, human cervical cancer cell line HeLa was used to study the effect of vanillin on the proliferation of cancer cells by MTT assay. Specifically, human cervical cancer cells HeLa were seeded into a 96-well plate at a density of 5×10^3 cells/well, and were divided into four groups. To each of the groups vanillin was added at a concentration of 0, 100, 250 or 500 μmol/L, respectively, and was allowed to grow for 4 days. Using the MTT assay, the optical density (OD) values at 490 nm were measured and recorded every day, wherein the OD value is indicative of the number of cells, i.e., the proliferation of cells.\nBy way of example, human cervical cancer cell line HeLa was used to study the effect of several vanillin derivatives for 72 hrs on the proliferation of cancer cells by MTT assay. Specifically, human cervical cancer cells HeLa were seeded into a 96-well plate at a density of 5×10^3 cells/well, and were divided into four groups. To each of the groups were added increasing concentrations (0, 10, 20, 30, 40 μmol/L) of vanillin derivatives ethyl vanillin (Code No. VAND3206), 4-methoxy vanillin (Code No. VAND3207), isovanillin (Code No. VAND3209) and 2-bromo-isovanillin (Code No. VAND3208), and the cells were cultured for 72 hrs. Using the MTT assay, the optical density (OD) values at 490 nm were measured and recorded every day, wherein the OD value is indicative of the number of cells, i.e., the proliferation of cells.\nBy way of example, human cervical cancer cell line HeLa was used to study the inhibitory effect of 2-bromo-isovanillin at different concentrations for different periods of time on the proliferation of cancer cells by MTT assay. Specifically, human cervical cancer cells HeLa were seeded into a 96-well plate at a density of 5×10^3 cells/well, and were divided into […]. To each of the groups 2-bromo-isovanillin was added at a concentration of 0, 10, 20, 30, 40 or 50 μmol/L, and was cultured for 14 days, respectively. Using the MTT assay, the optical density (OD) values at 490 nm were measured and recorded every day, wherein the OD value is indicative of the number of cells, i.e., the proliferation of cells."}, "[7]": {"system": "normal human hepatic cell line LO2", "test": "Cell cycle profile and apoptosis by flow cytometry, LO2", "assay_type": "cell-based", "details": "LO2, 40 μmol/L, 24 hrs", "experimental": "By way of example, human liver cancer cell line HepG2 and normal human hepatic cell line LO2 were used to study the inhibitory effect of 2-bromo-isovanillin on the growth of liver cancer cells and normal cells by clonogenic assay. Specifically, five groups were formed according to the drug concentration, and the liver cancer cells HepG2 and normal hepatic cells LO2 were respectively treated with 5, 10, 20, 40 and 80 μmol/L 2-bromo-isovanillin for 24 hrs. Then cell survival was measured by clonogenic assay (FIG. 8). In addition, the cell cycle profile and apoptotic effect were compared using flow cytometry."}},
  "data": [
    {"compound": "COc1ccc(C=O)c(Br)c1O", "note": "[2-bromo-isovanillin, 2-bromo-3-hydroxy-4-methoxybenzaldehyde]", "values": [
      {"measurement": "survival rate", "setting": "[1]; A2780, 20 μmol/L", "result": "lower than 10%"},
      {"measurement": "proliferation", "setting": "[1]; A2780, 30 μmol/L", "result": "completely inhibited"},
      {"measurement": "effect on the proliferation of all ten cancer cell lines", "setting": "[2]", "result": "significant inhibitory effect"},
      {"measurement": "survival rate", "setting": "[3]; 20 μmol/L", "result": "lower than 10%"},
      {"measurement": "proliferation", "setting": "[3]; 30 μmol/L", "result": "completely inhibited"},
      {"measurement": "M phase cells with multiple centrosomes or destroyed spindle structure", "setting": "[4]", "result": "more than 65%"},
      {"measurement": "ratio of cells at mitotic phase", "setting": "[4]", "result": "significantly increased"},
      {"measurement": "survival rate", "setting": "[5]; HOC8, 20 μmol/L", "result": "lower than 10%"},
      {"measurement": "proliferation", "setting": "[5]; HOC8, 30 μmol/L", "result": "completely inhibited"},
      {"measurement": "effect on the proliferation of HeLa cells", "setting": "[6]; 20 μmol/L", "result": "remarkable inhibitory effect"},
      {"measurement": "effect on the proliferation of HeLa cells", "setting": "[6]; 30 μmol/L or above for 4 days", "result": "completely lost their proliferative capabilities"},
      {"measurement": "effect on the proliferation of HeLa cells", "setting": "[6]; concentrations of less than 40 μmol/L, up to 72 hrs", "result": "significant inhibition"},
      {"measurement": "G2/M arrest and apoptosis in normal hepatic cells", "setting": "[7]", "result": "did not result in G2/M arrest or significant cell apoptosis"}
    ]}
  ]
}
